Columns and labels:
[1] = system: coronary arteries of the isolated hearts of rats; test: Isolated perfused rat heart, perfusion pressure during H2O2 introduction; format: in vivo
Method: It is known that reactive oxygen species (ROS) have regulatory or toxic effects on a cardiac muscle depending on their concentrations. When studying SkQ1 compound its ability to modulate ROS action has been found. Experiments have been carried out in the isolated hearts of rats which were given SkQ1 intravenously or with nutrition (50 μg/kg). The heart was isolated 2 hours after intravenous introduction of the compound, or after 2-week nutritional supplementation. The heart was perfused retrogradely according to a standard procedure by Krebs solution with a constant rate, and perfusion pressure (PP) characterized the tonus of coronary arteries. A spontaneous heart rate and isovolumic pressure in a left ventricular latex balloon were also recorded. These parameters were monitored at 40-minute introduction of 150 mcM H2O2, a standard ROS generator.

[2] = system: Normal fibroblasts from the human skin and lung; test: Morphology and mobility of normal fibroblasts; format: cell-based; settings: 20 nM for 6 days
Method: Normal fibroblasts from the human skin and lung and HeLa cells were cultivated at low cell density (20-30% confluency). Morphometric measurements were carried out for cell area, dispersion and elongation. Cytoskeleton structures were analyzed by staining the fixed cell preparations with rhodamine falloidin (actin filaments), antibodies against tubulin (microtubules) and vinculin (surface contacts). Mobility of the cells was examined with the help of microvideo camera.

Yarrowia lipolytica = test: Protection of yeast cells from death caused by hydrogen peroxide; format: cell-based
Plants cuttings = test: Development of higher plants under darkness stress; format: in vivo
Method: Plants cuttings were grown at the artificial agarized medium MS supplemented with 1 μM SkQ1 (3 plants) and with no addition of SkQ1 as a control (3 plants). Cuttings were placed into 50 ml transparent tubes and grown in climate chamber for 3 weeks at 27° C. and periodical illumination (14 h of light, 10 h of darkness). Then the plants were subjected to darkness stress, i.e. were grown in complete darkness for 7 days.

CC1=C(C)C(=O)C(CCCCCCCCCC[P+](c2ccccc2)(c2ccccc2)c2ccccc2)=CC1=O.[Br-] [SkQ1, 2,3-dimethyl-1,4-benzoquinon-5-decyl-triphenylphosphonium bromide]
PP change at the end of H2O2 introduction ([1]; prolonged consumption): −29±6 mmHg
maximal PP decline ([1]; prolonged consumption (2-week nutritional supplementation)): −38±5 mmHg
maximal PP decline versus initial level before H2O2 ([1]; single intravenous introduction): −43±5 mmHg
minimal perfusion pressure (PP) level ([1]; single intravenous introduction 50 μg/kg, heart isolated 2 hours later, 150 mcM H2O2): 77±2 mm Hg
amount of actin filaments, times higher [2]: 3.7 times
dispersion index lowered by factor [2]: 2.4
filament density in comparison to the control [2]: 136%
mean cell area, times higher than control [2]: 2.9 times
mobility of fibroblasts [2]: distinctly lower
rate of fibroblast proliferation [2]: no influence on the rate of fibroblast proliferation
elongation index ([2]; control 2.34): 0.69
concentration as effective as 25 μM α-tocopherol (Yarrowia lipolytica): 10 -fold lower
death of cells caused by hydrogen peroxide (Yarrowia lipolytica; 10 mM hydrogen peroxide): partially prevents the death
effect on survival compared among protectants (Yarrowia lipolytica; FIG. 14, α-tocopherol 25 μM): very similar
colour of plants after darkness stress (Plants cuttings; 1 μM in MS medium, 7 days complete darkness): retained their green color
plant size in comparison to control plants (Plants cuttings; 1 μM, additional 20 days normal lighting): more than 3 times

— patent publication US9328130B2, “Method of treating organism by biologically active compounds specifically delivered into mitochondria, pharmaceutical composition required for the use of the method and a compound applicable for this purpose” (MITOTECH S.A., priority 2005, dated 2016)
